Consider eight molecules from PubChem BioAssay (NCI).

Some test systems named below: A498 renal; UACC-257 melanoma; SNB-75 CNS; RPMI-8226 leukemia; UO-31 renal; HOP-62 NSCLC; IGROV1 ovarian.
Holding throughout (experiment): NCI tumour cell line growth inhibition, 48 h

SMILES strings stand for the structures.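 Tested at 5 concentrations; 48 h exposure; 96-well plates; endpoints linearly interpolated, else capped at highest concentration. GI50 is the concentration that inhibits growth by half. Definition used: TGI = concentration required for complete inhibition of growth.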

For `Cn1ccnc1C(=O)/C=C/c1ccc(CC(=O)Nc2cc(F)c(F)c(F)c2)cc1`, the GI50 in the test on A498 renal was 3.58 µM; in the test with UACC-257 melanoma, 3.59 µM; in the test with SNB-75 CNS, 0.867 µM; in the test with RPMI-8226 leukemia, 0.795 µM; with UO-31 renal it was 1.7 µM; with HOP-62 NSCLC it was 1.17 µM. Moreover, the GI50 in the test with IGROV1 ovarian was 1.4 µM. Moreover, the TGI was 7.65 µM with A498 renal; 10.1 µM with UACC-257 melanoma; over 25 µM in the test with SNB-75 CNS; 3.54 µM in the test on RPMI-8226 leukemia; 4.96 µM with UO-31 renal; 4.94 µM with HOP-62 NSCLC. Moreover, in the test with IGROV1 ovarian, the TGI is 8.22 µM.

Regarding `COc1ccc(C(=O)C(CN(C)C)c2ccccc2)cc1` (stereo not given), the GI50 is 8.11 µM in the test on A498 renal; 2.39 µM in the test on UACC-257 melanoma; 12.8 µM with SNB-75 CNS; 1.88 µM with RPMI-8226 leukemia; 1.43 µM in the test with UO-31 renal; 10.9 µM with HOP-62 NSCLC. The GI50 with IGROV1 ovarian was 2.18 µM. For the same molecule, the TGI in the test on A498 renal was 20.5 µM; in the test on UACC-257 melanoma it was 10.7 µM; in the test with SNB-75 CNS, 27.3 µM; in the test with RPMI-8226 leukemia, over 100 µM; in the test on UO-31 renal it was 2.74 µM; with HOP-62 NSCLC, 23.6 µM. The molecule also gave a TGI in the test with IGROV1 ovarian of 5.74 µM.

With `Nc1cc2ccncc2c2ccccc12`, the GI50 in the test with A498 renal was 1.84 µM; in the test on UACC-257 melanoma, 13.6 µM; with SNB-75 CNS, 16.1 µM; with RPMI-8226 leukemia it was 11.6 µM; in the test on UO-31 renal, 4.1 µM; with HOP-62 NSCLC, 13.7 µM. For the same molecule, the GI50 in the test on IGROV1 ovarian is 11.9 µM. In addition, the TGI in the test with A498 renal was 13.7 µM; with UACC-257 melanoma, 29.7 µM; with SNB-75 CNS, 35.2 µM; in the test with RPMI-8226 leukemia, 63.5 µM; in the test with UO-31 renal, 45.6 µM; in the test on HOP-62 NSCLC, over 100 µM. In addition, the TGI with IGROV1 ovarian is over 100 µM.

Turning to `CCN1CCN(c2nc(NNC(=O)c3cccc(OC)c3)nc(N3CCN(C(c4ccccc4)c4ccccc4)CC3)n2)CC1`, the GI50 was 3.73 µM in the test with A498 renal; 2.18 µM in the test on UACC-257 melanoma; 0.201 µM in the test on SNB-75 CNS; 1.84 µM in the test with RPMI-8226 leukemia; 1.23 µM in the test on UO-31 renal; 5.76 µM with HOP-62 NSCLC. Moreover, the GI50 with IGROV1 ovarian is 1.89 µM. In addition, the TGI in the test with A498 renal came to 15.3 µM; in the test on UACC-257 melanoma it was 4.99 µM; with SNB-75 CNS, 7.71 µM; in the test with RPMI-8226 leukemia, 4.4 µM; with UO-31 renal it was 2.47 µM; in the test on HOP-62 NSCLC, 23.5 µM. Besides, the TGI in the test with IGROV1 ovarian is 4.34 µM.

Regarding `N#CSc1cc(-c2nc3ccccc3o2)ccc1N`, the GI50 was 31.2 µM with A498 renal; 1.77 µM with UACC-257 melanoma; 1.83 µM with SNB-75 CNS; 15.9 µM in the test with RPMI-8226 leukemia; 22.6 µM in the test with UO-31 renal; 52.7 µM in the test with HOP-62 NSCLC. Also, in the test on IGROV1 ovarian, the GI50 was 27.2 µM. Besides, the TGI in the test with A498 renal is over 82.2 µM; in the test with UACC-257 melanoma, 26.4 µM; with SNB-75 CNS, over 20.7 µM; with RPMI-8226 leukemia, 53 µM; in the test with UO-31 renal, over 59.4 µM; with HOP-62 NSCLC it was over 100 µM. Besides, in the test on IGROV1 ovarian, the TGI was over 70.1 µM.

With `C=C(C)[C@@H]1CC[C@@H]2C(=CC[C@]3(C)C([C@H](C)CC/C=C(/C)C(=O)O)CC[C@@]23C)[C@@]1(C)CCC(=O)O` (stereo not given in full), the TGI in the test on A498 renal is 74.4 µM; in the test with UACC-257 melanoma, 54.2 µM; in the test on SNB-75 CNS, over 100 µM; in the test on RPMI-8226 leukemia, 58.2 µM; in the test with UO-31 renal, 30.7 µM; in the test with HOP-62 NSCLC it was over 100 µM. In the test with IGROV1 ovarian, this molecule showed a TGI of 88.8 µM.

For `S=C1NC2=C(CCOc3c2ccc2ccccc32)C(c2ccc(Cl)cc2)N1` (stereo not given), the GI50 in the test with A498 renal is 26.2 µM; in the test on UACC-257 melanoma it was 45.4 µM; with SNB-75 CNS, 84 µM; in the test with RPMI-8226 leukemia, 25 µM; with UO-31 renal, 46.2 µM; in the test on HOP-62 NSCLC, 70.8 µM. In the test on IGROV1 ovarian, the GI50 was 52.8 µM. Further, the TGI in the test on A498 renal is 68 µM; in the test with UACC-257 melanoma it was over 100 µM; in the test on SNB-75 CNS it was over 100 µM; with RPMI-8226 leukemia it was over 100 µM; in the test with UO-31 renal, over 100 µM; in the test on HOP-62 NSCLC, over 100 µM. In the test with IGROV1 ovarian, the TGI was over 100 µM.

Consider `COc1ccc2c(c1)/C(=N/OC(C)=O)c1c-2c(Nc2ccc(/C(C)=N/OC(C)=O)cc2)nc2ccccc12`, for which the GI50 in the test with A498 renal is over 100 µM; in the test on UACC-257 melanoma, over 100 µM; in the test on SNB-75 CNS, 25 µM; in the test with RPMI-8226 leukemia it was 29.2 µM; with UO-31 renal, 72.8 µM; in the test with HOP-62 NSCLC, 38.1 µM. In addition, in the test with IGROV1 ovarian, the GI50 was 71.6 µM. The TGI in the test with A498 renal was over 100 µM; in the test with UACC-257 melanoma, over 100 µM; in the test with SNB-75 CNS it was 75.9 µM; in the test on RPMI-8226 leukemia, 79.7 µM; with UO-31 renal it was over 100 µM; in the test on HOP-62 NSCLC it was over 100 µM. For the same molecule, the TGI with IGROV1 ovarian is over 100 µM.
